Measurements: US9340590B2 (priority 2011, dated 2016)
Positions of bridges follow the written chain, without caps; N, C: chain ends. Residues, ends and D or L forms follow the SMILES beside them.

Assays:
Test in all cases: cell-based
hNav1.7 = hNav1.7 (Homo sapiens, UniProt Q15858); format: cell-based; conditions: IonWorks Quattro, use-dependent block, hNav1.7; read-out: IWQ Use Nav1.7
hNav1.5 = hNav1.5 (Homo sapiens, UniProt Q14524); conditions: IonWorks Quattro, use-dependent block, hNav1.5; read-out: IWQ Use Nav1.5
Chain of hNav1.5 (Q14524 whole entry, looked up): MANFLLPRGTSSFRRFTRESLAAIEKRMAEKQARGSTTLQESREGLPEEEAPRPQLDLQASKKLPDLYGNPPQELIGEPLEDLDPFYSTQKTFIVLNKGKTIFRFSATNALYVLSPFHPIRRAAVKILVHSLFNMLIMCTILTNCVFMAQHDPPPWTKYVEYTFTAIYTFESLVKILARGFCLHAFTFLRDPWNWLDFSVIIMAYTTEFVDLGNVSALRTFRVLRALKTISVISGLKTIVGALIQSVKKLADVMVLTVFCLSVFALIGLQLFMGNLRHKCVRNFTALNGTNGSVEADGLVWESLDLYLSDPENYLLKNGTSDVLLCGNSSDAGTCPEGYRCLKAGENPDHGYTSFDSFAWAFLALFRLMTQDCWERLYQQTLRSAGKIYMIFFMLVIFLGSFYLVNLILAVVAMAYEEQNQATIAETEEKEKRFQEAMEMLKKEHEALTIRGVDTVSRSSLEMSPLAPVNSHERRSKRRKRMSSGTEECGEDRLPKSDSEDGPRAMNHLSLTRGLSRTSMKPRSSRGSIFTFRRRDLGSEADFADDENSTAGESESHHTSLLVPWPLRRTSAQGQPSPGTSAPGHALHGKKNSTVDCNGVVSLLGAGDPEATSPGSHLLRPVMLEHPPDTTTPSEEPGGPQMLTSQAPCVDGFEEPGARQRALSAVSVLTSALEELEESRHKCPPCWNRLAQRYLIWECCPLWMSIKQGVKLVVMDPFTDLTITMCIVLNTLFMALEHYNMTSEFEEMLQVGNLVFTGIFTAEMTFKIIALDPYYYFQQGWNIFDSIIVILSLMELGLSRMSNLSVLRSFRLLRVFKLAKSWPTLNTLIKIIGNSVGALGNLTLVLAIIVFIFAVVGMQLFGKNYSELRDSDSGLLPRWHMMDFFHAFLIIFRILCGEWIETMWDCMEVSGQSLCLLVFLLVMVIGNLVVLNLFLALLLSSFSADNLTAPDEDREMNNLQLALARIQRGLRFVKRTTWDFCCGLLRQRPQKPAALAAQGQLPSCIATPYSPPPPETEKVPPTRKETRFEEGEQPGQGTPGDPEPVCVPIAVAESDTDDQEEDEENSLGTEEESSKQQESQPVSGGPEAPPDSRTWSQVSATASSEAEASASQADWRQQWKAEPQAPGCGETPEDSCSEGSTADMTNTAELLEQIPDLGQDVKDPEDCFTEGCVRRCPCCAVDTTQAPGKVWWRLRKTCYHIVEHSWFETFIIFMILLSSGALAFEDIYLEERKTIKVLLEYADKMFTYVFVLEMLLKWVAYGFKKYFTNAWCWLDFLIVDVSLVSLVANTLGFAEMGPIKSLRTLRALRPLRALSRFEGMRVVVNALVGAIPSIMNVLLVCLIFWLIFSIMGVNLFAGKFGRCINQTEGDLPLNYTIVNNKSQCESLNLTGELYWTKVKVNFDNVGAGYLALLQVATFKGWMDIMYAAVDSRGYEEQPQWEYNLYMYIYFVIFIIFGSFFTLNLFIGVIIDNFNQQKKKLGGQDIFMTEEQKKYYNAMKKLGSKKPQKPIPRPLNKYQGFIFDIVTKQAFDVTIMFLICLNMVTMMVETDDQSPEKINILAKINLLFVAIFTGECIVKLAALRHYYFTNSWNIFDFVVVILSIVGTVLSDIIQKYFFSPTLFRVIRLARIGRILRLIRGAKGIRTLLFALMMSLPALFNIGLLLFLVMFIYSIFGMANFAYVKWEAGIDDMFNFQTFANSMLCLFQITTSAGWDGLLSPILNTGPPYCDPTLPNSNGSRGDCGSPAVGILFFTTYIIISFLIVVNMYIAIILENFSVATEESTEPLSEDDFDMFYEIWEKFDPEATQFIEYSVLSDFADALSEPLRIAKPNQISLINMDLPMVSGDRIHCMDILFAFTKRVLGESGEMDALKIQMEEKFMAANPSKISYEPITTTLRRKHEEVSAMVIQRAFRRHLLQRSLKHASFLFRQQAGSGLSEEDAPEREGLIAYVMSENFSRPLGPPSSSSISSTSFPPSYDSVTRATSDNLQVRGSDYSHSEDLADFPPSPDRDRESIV

hNav1.3 = hNav1.3 (Homo sapiens, UniProt Q9NY46); conditions: IonWorks Quattro, use-dependent block, hNav1.3; read-out: IWQ Use Nav1.3
Chain of hNav1.3 (Q9NY46 whole entry, looked up): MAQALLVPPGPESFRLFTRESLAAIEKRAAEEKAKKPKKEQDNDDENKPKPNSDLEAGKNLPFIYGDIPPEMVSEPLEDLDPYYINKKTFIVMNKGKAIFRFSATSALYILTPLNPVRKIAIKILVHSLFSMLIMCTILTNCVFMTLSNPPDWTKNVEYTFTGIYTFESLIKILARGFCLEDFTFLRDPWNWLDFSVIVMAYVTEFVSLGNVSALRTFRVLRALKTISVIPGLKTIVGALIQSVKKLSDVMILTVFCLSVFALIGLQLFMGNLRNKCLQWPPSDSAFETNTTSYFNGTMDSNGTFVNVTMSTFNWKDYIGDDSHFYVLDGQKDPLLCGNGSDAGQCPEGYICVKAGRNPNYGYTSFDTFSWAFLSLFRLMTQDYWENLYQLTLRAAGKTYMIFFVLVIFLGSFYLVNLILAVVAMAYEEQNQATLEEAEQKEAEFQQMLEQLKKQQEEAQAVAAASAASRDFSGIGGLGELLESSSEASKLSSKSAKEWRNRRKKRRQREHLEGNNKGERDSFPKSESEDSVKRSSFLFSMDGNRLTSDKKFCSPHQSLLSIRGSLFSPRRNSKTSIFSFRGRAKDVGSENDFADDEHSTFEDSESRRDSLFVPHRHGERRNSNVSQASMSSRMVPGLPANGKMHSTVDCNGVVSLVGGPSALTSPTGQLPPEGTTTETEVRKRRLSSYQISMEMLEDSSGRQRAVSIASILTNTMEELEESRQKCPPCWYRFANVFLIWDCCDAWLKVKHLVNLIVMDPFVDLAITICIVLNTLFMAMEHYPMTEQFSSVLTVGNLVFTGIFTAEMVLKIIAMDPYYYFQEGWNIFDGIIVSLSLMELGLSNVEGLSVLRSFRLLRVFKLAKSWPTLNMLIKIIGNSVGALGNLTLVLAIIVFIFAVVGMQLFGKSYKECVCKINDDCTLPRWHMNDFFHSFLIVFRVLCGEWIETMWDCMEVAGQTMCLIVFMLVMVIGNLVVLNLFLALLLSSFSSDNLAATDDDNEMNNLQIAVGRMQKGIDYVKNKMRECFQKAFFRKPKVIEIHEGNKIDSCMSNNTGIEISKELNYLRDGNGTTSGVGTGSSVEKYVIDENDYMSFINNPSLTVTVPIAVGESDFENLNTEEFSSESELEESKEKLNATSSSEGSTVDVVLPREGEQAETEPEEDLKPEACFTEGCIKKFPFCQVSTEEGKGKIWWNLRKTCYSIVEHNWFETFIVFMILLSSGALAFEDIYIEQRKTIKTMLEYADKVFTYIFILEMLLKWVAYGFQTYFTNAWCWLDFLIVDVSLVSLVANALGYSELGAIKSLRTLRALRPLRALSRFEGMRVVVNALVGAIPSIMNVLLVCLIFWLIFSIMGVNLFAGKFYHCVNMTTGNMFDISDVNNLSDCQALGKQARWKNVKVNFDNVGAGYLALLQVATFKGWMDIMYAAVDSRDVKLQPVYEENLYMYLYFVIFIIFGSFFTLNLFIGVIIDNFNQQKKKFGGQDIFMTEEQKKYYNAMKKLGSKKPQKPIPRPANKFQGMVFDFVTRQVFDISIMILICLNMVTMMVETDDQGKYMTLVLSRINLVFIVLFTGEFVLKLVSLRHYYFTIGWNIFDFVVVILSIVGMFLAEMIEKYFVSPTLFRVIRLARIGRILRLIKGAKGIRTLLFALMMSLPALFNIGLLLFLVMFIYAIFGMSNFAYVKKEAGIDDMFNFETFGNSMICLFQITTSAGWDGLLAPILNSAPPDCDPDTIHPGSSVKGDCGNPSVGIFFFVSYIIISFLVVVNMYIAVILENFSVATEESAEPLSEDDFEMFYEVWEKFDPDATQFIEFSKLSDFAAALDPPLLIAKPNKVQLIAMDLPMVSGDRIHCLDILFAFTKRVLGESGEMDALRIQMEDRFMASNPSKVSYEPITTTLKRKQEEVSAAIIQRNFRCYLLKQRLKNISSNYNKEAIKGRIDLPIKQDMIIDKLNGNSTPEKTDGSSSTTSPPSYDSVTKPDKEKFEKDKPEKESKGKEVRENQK

SMILES	IC50 (hNav1.7) [µM]	IC50 (hNav1.5) [µM]	IC50 (hNav1.3) [µM]
CC[C@H](C)[C@@H]1NC(=O)[C@@H]2CSSC[C@@H]3NC(=O)[C@H](C(C)C)NC(=O)[C@H](CC(C)C)NC(=O)[C@H](CC(N)=O)NC(=O)[C@@H]4CCCN4C(=O)[C@H](CCCNC(=N)N)NC(=O)[C@H](CSSC[C@H](NC(=O)[C@@H](N)CC(=O)O)C(=O)N[C@@H](CC(C)C)C(=O)NCC(=O)N[C@@H](C)C(=O)N[C@@H](Cc4ccccc4)C(=O)N[C@@H](CCCNC(=N)N)C(=O)N[C@@H](CCCCN)C(=O)N2)NC(=O)[C@H](CSSC[C@@H](C(=O)N[C@@H](CCCCN)C(=O)N[C@@H](Cc2ccc(O)cc2)C(=O)N[C@H](C(=O)N[C@@H](Cc2ccccc2)C(=O)O)C(C)C)NC(=O)[C@H](Cc2c[nH]c4ccccc24)NC(=O)[C@H](CCCNC(=N)N)NC(=O)[C@H](Cc2c[nH]cn2)NC(=O)[C@H]([C@@H](C)O)NC(=O)[C@H](CCCNC(=N)N)NC(=O)[C@H](CO)NC3=O)NC(=O)[C@H](CCCCN)NC(=O)[C@H](CC(=O)O)NC(=O)[C@H](CCCNC(=N)N)NC(=O)[C@H](CC(=O)O)NC(=O)[C@@H]2CCCN2C1=O [compound 848]	4.5	> 5	0.6
CC[C@H](C)[C@@H]1NC(=O)[C@@H]2CSSC[C@@H]3NC(=O)[C@H](C(C)C)NC(=O)[C@H](CC(C)C)NC(=O)[C@H](CC(N)=O)NC(=O)[C@@H]4CCCN4C(=O)[C@H](CCCNC(=N)N)NC(=O)[C@H](CSSC[C@H](NC(=O)[C@@H](N)CC(=O)O)C(=O)N[C@@H](CC(C)C)C(=O)NCC(=O)N[C@@H](C)C(=O)N[C@@H](Cc4ccccc4)C(=O)N[C@@H](CCCNC(=N)N)C(=O)N[C@@H](CCCCN)C(=O)N2)NC(=O)[C@H](CSSC[C@@H](C(=O)N[C@@H](CCCCN)C(=O)N[C@@H](Cc2ccc(O)cc2)C(=O)N[C@H](C(=O)N[C@@H](Cc2ccccc2)C(=O)O)C(C)C)NC(=O)[C@H](Cc2c[nH]c4ccccc24)NC(=O)[C@H](CCCNC(=N)N)NC(=O)[C@H](Cc2c[nH]cn2)NC(=O)[C@H]([C@@H](C)O)NC(=O)[C@H](CCCNC(=N)N)NC(=O)[C@H](CO)NC3=O)NC(=O)[C@H](CCCCN)NC(=O)[C@H](CC(=O)O)NC(=O)[C@H](CO)NC(=O)[C@H](CC(=O)O)NC(=O)[C@@H]2CCCN2C1=O [compound 849]	> 5	> 5	1.1
CC[C@H](C)[C@@H]1NC(=O)[C@@H]2CSSC[C@@H]3NC(=O)[C@H](C(C)C)NC(=O)[C@H](CC(C)C)NC(=O)[C@H](CC(N)=O)NC(=O)[C@@H]4CCCN4C(=O)[C@H](CCCNC(=N)N)NC(=O)[C@H](CSSC[C@H](NC(=O)[C@@H](N)CC(=O)O)C(=O)N[C@@H](CC(C)C)C(=O)NCC(=O)N[C@@H](C)C(=O)N[C@@H](Cc4ccccc4)C(=O)N[C@@H](CCCNC(=N)N)C(=O)N[C@@H](CCCCN)C(=O)N2)NC(=O)[C@H](CSSC[C@@H](C(=O)N[C@@H](CCCCN)C(=O)N[C@@H](Cc2ccc(O)cc2)C(=O)N[C@H](C(=O)N[C@@H](Cc2ccccc2)C(=O)O)C(C)C)NC(=O)[C@H](Cc2c[nH]c4ccccc24)NC(=O)[C@H](CCCNC(=N)N)NC(=O)[C@H](Cc2c[nH]cn2)NC(=O)[C@H]([C@@H](C)O)NC(=O)[C@H](CCCNC(=N)N)NC(=O)[C@H](CO)NC3=O)NC(=O)[C@H](CCCCN)NC(=O)[C@H](CC(=O)O)NC(=O)[C@H]([C@@H](C)O)NC(=O)[C@H](CC(=O)O)NC(=O)[C@@H]2CCCN2C1=O [compound 850]	> 5	> 5	1.3
CC[C@H](C)[C@@H]1NC(=O)[C@@H]2CSSC[C@@H]3NC(=O)[C@H](C(C)C)NC(=O)[C@H](CC(C)C)NC(=O)[C@H](CC(N)=O)NC(=O)[C@@H]4CCCN4C(=O)[C@H](CCCNC(=N)N)NC(=O)[C@H](CSSC[C@H](NC(=O)[C@@H](N)CC(=O)O)C(=O)N[C@@H](CC(C)C)C(=O)NCC(=O)N[C@@H](C)C(=O)N[C@@H](Cc4ccccc4)C(=O)N[C@@H](CCCNC(=N)N)C(=O)N[C@@H](CCCCN)C(=O)N2)NC(=O)[C@H](CSSC[C@@H](C(=O)N[C@@H](CCCCN)C(=O)N[C@@H](Cc2ccc(O)cc2)C(=O)N[C@H](C(=O)N[C@@H](Cc2ccccc2)C(=O)O)C(C)C)NC(=O)[C@H](Cc2c[nH]c4ccccc24)NC(=O)[C@H](CCCNC(=N)N)NC(=O)[C@H](Cc2c[nH]cn2)NC(=O)[C@H]([C@@H](C)O)NC(=O)[C@H](CCCNC(=N)N)NC(=O)[C@H](CO)NC3=O)NC(=O)[C@H](CCCCN)NC(=O)[C@H](CC(=O)O)NC(=O)[C@H](C(C)C)NC(=O)[C@H](CC(=O)O)NC(=O)[C@@H]2CCCN2C1=O [compound 851]	> 5	> 5	1.7
CC[C@H](C)[C@@H]1NC(=O)[C@@H]2CSSC[C@@H]3NC(=O)[C@H](C(C)C)NC(=O)[C@H](CC(C)C)NC(=O)[C@H](CC(N)=O)NC(=O)[C@@H]4CCCN4C(=O)[C@H](CCCNC(=N)N)NC(=O)[C@H](CSSC[C@H](NC(=O)[C@@H](N)CC(=O)O)C(=O)N[C@@H](CC(C)C)C(=O)NCC(=O)N[C@@H](C)C(=O)N[C@@H](Cc4ccccc4)C(=O)N[C@@H](CCCNC(=N)N)C(=O)N[C@@H](CCCCN)C(=O)N2)NC(=O)[C@H](CSSC[C@@H](C(=O)N[C@@H](CCCCN)C(=O)N[C@@H](Cc2ccc(O)cc2)C(=O)N[C@H](C(=O)N[C@@H](Cc2ccccc2)C(=O)O)C(C)C)NC(=O)[C@H](Cc2c[nH]c4ccccc24)NC(=O)[C@H](CCCNC(=N)N)NC(=O)[C@H](Cc2c[nH]cn2)NC(=O)[C@H]([C@@H](C)O)NC(=O)[C@H](CCCNC(=N)N)NC(=O)[C@H](CO)NC3=O)NC(=O)[C@H](CCCCN)NC(=O)[C@H](CC(=O)O)NC(=O)[C@H](Cc2c[nH]c3ccccc23)NC(=O)[C@H](CC(=O)O)NC(=O)[C@@H]2CCCN2C1=O [compound 852]	> 5	> 5	> 5
CC[C@H](C)[C@@H]1NC(=O)[C@@H]2CSSC[C@@H]3NC(=O)[C@H](C(C)C)NC(=O)[C@H](CC(C)C)NC(=O)[C@H](CC(N)=O)NC(=O)[C@@H]4CCCN4C(=O)[C@H](CCCNC(=N)N)NC(=O)[C@H](CSSC[C@H](NC(=O)[C@@H](N)CC(=O)O)C(=O)N[C@@H](CC(C)C)C(=O)NCC(=O)N[C@@H](C)C(=O)N[C@@H](CC(C)C)C(=O)N[C@@H](CCCNC(=N)N)C(=O)N[C@@H](CCCCN)C(=O)N2)NC(=O)[C@H](CSSC[C@@H](C(=O)N[C@@H](CCCCN)C(=O)N[C@@H](Cc2ccc(O)cc2)C(=O)N[C@H](C(=O)N[C@@H](Cc2ccccc2)C(=O)O)C(C)C)NC(=O)[C@H](Cc2c[nH]c4ccccc24)NC(=O)[C@H](CCCNC(=N)N)NC(=O)[C@H](Cc2c[nH]cn2)NC(=O)[C@H]([C@@H](C)O)NC(=O)[C@H](CCCNC(=N)N)NC(=O)[C@H](CO)NC3=O)NC(=O)[C@H](CCCCN)NC(=O)[C@H](CC(=O)O)NC(=O)[C@H](CC(N)=O)NC(=O)[C@H](CC(=O)O)NC(=O)[C@@H]2CCCN2C1=O [compound 853] (H-DCLGALRKCIPDNDKCCRPNLVCSRTHRWCKYVF-OH; disulfide 2-17, 9-23, 16-30)	> 5	> 5	> 5
